Assay results published in ChEMBL document CHEMBL1201862, “PubChem BioAssay data set” (2004).
Activity calls are given as the source filed them.

Legend:
[1] = antiviral protection against BTV-induced cell death – arbovirus, BSR cells, confirmation (AID 1250); assay type: functional;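 note: protection from viral cytopathic effect measured as cell viability by ATP luminescence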
[2] = loss of viability in HepG2 cells – cell-based, CellTiter-Glo, cherry-picked, cytotoxicity control for Shn3 inhibitor project, dose response (AID 624134); assay type: functional
HEK293 [3] = test: cells; assay type: functional, cell-based; settings: Homo sapiens
[4] = fluconazole-exposed Candida albicans growth modulators – fluorescence, retest, confirmation (AID 2467); assay type: functional, cell-based
[5] = target: ATP-dependent molecular chaperone HSP82 (Candida albicans (strain WO-1) (Yeast), UniProt C4YTQ8); test: steroid-induced GRE reporter decrease in yeast – S. cerevisiae, luminescence, Hsp90 inhibitor project, dose response (AID 2400); assay type: functional, cell-based;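 note: beta-galactosidase luminescence from glucocorticoid response element reporter as proxy for Hsp90 function; inhibitor potency where signal loss means Hsp90 inhibition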
HEK293 [6] = test: cells; assay type: functional, cell-based; settings: Homo sapiens; remark: listed apart in the source
HEK293 [7] = test: cells; settings: Homo sapiens
HEK293 [8] = test: NOD2 signaling inhibitors in MDP-stimulated cells, cell-based, uHTS, luminescence (AID 2001); assay type: functional; settings: Homo sapiens
[9] = NIH-3T3 fibroblast cytotoxicity, dose response, cytotoxicity control, cell-based, fluorescence, Alamar Blue, secondary assay (AID 2327); assay type: functional;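 note: NIH-3T3 mouse fibroblasts cultured with fluconazole at 8 µg/mL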
[10] = target: T1, Nucleotide-binding oligomerization domain-containing protein 1 (Homo sapiens, UniProt Q9Y239); test: blockers of NOD1 pathway activity – revised, SAR follow-up (AID 2333); assay type: functional
T1 sequence (Q9Y239 whole entry): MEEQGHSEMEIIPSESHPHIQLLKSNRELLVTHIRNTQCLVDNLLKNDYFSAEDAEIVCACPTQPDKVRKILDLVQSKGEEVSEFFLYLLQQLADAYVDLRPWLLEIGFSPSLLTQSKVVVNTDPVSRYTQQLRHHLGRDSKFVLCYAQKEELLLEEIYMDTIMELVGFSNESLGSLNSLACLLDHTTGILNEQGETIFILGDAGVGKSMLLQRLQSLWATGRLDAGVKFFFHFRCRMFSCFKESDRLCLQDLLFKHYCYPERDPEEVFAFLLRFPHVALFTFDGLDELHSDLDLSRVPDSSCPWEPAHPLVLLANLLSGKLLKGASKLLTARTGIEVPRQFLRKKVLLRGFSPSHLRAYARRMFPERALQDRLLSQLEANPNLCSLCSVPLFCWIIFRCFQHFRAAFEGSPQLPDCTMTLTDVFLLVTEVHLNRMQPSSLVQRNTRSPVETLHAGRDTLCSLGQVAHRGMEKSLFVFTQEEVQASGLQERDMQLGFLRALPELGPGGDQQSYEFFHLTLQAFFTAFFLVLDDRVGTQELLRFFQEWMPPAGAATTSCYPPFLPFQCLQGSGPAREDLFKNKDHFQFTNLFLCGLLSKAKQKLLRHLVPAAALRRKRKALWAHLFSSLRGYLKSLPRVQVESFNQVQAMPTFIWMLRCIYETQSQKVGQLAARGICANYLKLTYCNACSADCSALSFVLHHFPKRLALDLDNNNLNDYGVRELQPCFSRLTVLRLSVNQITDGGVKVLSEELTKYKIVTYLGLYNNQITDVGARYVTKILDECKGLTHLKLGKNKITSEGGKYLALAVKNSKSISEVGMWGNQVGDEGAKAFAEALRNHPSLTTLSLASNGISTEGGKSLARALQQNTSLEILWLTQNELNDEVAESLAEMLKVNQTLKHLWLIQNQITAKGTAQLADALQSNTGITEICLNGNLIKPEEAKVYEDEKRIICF

[11] = target: Nucleotide-binding oligomerization domain-containing protein 2 (Homo sapiens, UniProt Q9HC29); test: inhibition of NOD2-driven NF-kB reporter – cell-based, luminescence, uHTS, HEK293 (AID 1566); assay type: functional
[12] = reduction of Shn3 3'UTR-driven luciferase in osteoblasts – cell-based, Clone20 osteoblasts, firefly luciferase, cherry-picked, dose response (AID 624132); assay type: functional;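 note: firefly luciferase luminescence from reporter carrying the Shn3 3'UTR in osteoblasts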
[13] = non-specific 3'UTR reporter inhibition in Clone20-Shn3RL – cell-based, Renilla luciferase, cherry-picked, counter-screen for Shn3 inhibitor project, dose response (AID 624133); assay type: functional
Tumor necrosis factor = Tumor necrosis factor (Homo sapiens, UniProt P01375); test: analog potency on TNFa NF-kB signaling – cell-based, revised, SAR follow-up (AID 2337); assay type: functional
HEK293 [14] = test: cells; assay type: functional, cell-based; settings: Homo sapiens; remark: listed apart in the source
[15] = target: T2, Serine/threonine-protein phosphatase (Candida dubliniensis (strain CD36 / CBS 7987 / NCPF 3949 / NRRLY-17841) (Yeast), UniProt B9W6M3); test: blockers of CaCl2-induced CDRE-lacZ signaling – S. cerevisiae, luminescence, secondary, dose response (AID 2388); assay type: functional, cell-based;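 note: yeast reporter cells carrying a calcineurin-responsive lacZ construct stimulated with calcium chloride; luminescent beta-galactosidase reporter signal in whole cells rather than isolated phosphatase activity; potency for inhibition where a drop in reporter signal means calcineurin blockade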
T2 sequence (B9W6M3 whole entry): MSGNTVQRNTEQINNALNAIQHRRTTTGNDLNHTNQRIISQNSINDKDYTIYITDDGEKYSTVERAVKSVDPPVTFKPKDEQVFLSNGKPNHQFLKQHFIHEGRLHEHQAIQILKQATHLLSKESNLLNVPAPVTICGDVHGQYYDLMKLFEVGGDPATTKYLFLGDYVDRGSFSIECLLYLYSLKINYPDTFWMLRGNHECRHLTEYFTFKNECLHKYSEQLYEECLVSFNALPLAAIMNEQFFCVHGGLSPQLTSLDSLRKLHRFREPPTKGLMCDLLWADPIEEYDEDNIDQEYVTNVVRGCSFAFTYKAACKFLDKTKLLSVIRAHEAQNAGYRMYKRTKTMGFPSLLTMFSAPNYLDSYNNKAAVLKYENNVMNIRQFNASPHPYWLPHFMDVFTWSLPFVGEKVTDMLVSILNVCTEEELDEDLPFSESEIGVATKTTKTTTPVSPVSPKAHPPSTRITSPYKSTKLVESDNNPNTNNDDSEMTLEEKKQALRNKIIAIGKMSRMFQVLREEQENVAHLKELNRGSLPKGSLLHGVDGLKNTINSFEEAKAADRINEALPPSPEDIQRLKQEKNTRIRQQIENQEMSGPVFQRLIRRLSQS

HEK293 [16] = test: inhibition of NOD1-driven NF-kB reporter – cell-based, luminescence, uHTS, primary screen (AID 1578); assay type: functional; settings: Homo sapiens
[17] = HEK-293T viability loss after treatment – luminescence, T-cell screen hits, cytotoxicity control for TCR NF-kB inhibitor project, dose response (AID 489026); assay type: functional, cell-based;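 note: cells exposed to compound about 14 hours before the viability readout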
[18] = target: T3, Calpain-2 catalytic subunit (Sus scrofa, UniProt P43367); test: m-calpain protease blockers, concentration series – biochemical, fluorogenic peptide substrate, dose response (AID 1420); assay type: functional
T3 sequence (P43367 whole entry): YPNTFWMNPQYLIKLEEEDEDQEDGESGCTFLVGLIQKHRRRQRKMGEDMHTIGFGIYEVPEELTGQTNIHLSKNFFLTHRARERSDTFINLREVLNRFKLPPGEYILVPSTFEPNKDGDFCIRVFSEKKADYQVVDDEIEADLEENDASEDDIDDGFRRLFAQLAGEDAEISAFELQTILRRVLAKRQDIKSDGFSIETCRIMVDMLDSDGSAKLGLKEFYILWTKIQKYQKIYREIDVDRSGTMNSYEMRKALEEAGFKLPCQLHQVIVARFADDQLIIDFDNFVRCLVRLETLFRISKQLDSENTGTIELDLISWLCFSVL

[19] = target: T4, Corticotropin-releasing factor receptor 2/Corticotropin-releasing factor-binding protein (Homo sapiens, UniProt P24387+Q13324); test: activators of CRF receptor 2 with binding protein – uHTS hits, confirmation (AID 602473); assay type: functional; settings: read-out: EC50_Mean
T4 sequence (Q13324 whole entry): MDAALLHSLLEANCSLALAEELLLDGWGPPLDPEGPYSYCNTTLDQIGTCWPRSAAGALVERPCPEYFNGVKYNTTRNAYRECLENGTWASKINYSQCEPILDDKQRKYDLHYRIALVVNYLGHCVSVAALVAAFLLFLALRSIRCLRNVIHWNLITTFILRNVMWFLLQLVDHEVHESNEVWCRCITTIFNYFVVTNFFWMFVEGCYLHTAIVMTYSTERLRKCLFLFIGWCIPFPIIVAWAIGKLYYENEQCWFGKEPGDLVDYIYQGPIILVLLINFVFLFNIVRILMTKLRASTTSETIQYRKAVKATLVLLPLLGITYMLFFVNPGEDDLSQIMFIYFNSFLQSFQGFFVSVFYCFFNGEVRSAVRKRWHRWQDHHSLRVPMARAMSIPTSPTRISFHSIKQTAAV
T4 sequence (P24387 whole entry): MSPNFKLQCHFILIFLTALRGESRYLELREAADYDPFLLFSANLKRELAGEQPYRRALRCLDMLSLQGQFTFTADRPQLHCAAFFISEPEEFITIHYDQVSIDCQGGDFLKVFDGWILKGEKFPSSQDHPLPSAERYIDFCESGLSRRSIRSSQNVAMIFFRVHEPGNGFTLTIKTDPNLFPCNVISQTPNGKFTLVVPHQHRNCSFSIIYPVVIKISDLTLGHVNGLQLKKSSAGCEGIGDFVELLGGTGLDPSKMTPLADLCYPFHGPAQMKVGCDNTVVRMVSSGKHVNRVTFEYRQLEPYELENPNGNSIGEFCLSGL

[20] = target: T4, Corticotropin-releasing factor receptor 2/Corticotropin-releasing factor-binding protein; test: Dose Response confirmation of uHTS hits for small molecule antagonists of the CRF-binding protein and CRF-R2 receptor complex.; assay type: functional; settings: read-out: IC50_Mean
Aspartyl aminopeptidase = target: T5, Aspartyl aminopeptidase (Plasmodium falciparum 3D7, UniProt Q8I2J3); test: Counterscreen for inhibitors of M1 and M17 aminopeptidases: QFRET-based biochemical high throughput dose response assay for inhibitors of the Plasmodium falciparum M18 Aspartyl Aminopeptidase (PFM18AAP). [Related PubChem assays: 1619 (Screening assay (M17LAP inhibitors).), 1445 (Screening assay (M1AAP inhibitors).)]
T5 sequence (Q8I2J3 whole entry): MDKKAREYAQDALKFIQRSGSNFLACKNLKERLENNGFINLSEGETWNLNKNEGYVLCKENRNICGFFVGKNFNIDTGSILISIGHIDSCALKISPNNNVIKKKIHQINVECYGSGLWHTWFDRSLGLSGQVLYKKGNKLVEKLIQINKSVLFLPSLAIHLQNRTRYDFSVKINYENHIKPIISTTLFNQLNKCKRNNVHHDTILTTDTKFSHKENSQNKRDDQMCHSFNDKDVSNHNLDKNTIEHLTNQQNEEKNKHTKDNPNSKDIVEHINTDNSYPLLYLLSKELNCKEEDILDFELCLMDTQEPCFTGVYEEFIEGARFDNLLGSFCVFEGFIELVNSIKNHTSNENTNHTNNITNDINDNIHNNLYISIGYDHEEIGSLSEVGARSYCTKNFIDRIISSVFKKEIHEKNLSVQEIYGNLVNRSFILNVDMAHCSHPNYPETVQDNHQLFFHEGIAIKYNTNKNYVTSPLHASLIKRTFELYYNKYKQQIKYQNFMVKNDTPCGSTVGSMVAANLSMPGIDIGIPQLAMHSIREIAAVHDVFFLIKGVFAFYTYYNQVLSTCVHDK

Leucine aminopeptidase = target: T6, Leucine aminopeptidase (Plasmodium falciparum 3D7, UniProt Q8IL11); test: P. falciparum M17LAP inhibitors, primary screen, biochemical, fluorogenic H-Leu-NHMec substrate, 1536-well (AID 1619); assay type: functional
T6 sequence (Q8IL11 whole entry): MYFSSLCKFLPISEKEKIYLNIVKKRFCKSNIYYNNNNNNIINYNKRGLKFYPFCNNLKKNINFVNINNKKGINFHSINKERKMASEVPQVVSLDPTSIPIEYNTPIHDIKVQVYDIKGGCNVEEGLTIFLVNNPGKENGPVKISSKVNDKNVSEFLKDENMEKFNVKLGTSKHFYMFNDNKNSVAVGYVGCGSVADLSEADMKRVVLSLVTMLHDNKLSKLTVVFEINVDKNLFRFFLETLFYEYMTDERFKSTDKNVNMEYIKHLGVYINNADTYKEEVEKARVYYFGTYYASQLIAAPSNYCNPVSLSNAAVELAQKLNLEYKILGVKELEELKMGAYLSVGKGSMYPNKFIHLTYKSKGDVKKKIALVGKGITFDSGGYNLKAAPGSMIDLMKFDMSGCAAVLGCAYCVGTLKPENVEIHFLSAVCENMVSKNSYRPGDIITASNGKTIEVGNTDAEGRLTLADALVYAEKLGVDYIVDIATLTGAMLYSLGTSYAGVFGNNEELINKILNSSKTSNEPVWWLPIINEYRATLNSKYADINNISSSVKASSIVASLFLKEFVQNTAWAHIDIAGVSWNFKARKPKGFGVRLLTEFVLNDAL

Procathepsin L = Procathepsin L (Homo sapiens, UniProt P07711); test: CTSL1 protease inhibition – biochemical, QFRET, 1536-well, counter-screen for M1/M17 aminopeptidase inhibitor project, dose response (AID 2214)
Procathepsin L, sequence (P07711 whole entry): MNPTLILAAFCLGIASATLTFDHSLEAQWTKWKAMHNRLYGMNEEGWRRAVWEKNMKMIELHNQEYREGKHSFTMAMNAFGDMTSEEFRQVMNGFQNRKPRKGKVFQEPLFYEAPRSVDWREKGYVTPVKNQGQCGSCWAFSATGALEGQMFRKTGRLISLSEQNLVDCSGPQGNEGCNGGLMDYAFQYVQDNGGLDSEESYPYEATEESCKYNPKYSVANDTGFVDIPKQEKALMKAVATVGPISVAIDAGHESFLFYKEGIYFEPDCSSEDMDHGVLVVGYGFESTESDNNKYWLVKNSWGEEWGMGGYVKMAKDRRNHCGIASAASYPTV

Tumor necrosis factor, sequence (P01375 whole entry): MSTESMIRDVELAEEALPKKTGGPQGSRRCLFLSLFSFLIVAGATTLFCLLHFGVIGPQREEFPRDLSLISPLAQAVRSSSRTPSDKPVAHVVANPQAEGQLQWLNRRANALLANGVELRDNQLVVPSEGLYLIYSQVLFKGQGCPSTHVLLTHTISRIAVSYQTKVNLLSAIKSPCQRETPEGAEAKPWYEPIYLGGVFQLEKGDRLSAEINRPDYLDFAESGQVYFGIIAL
Nucleotide-binding oligomerization domain-containing protein 2, sequence (Q9HC29 whole entry, the tested form may be a part): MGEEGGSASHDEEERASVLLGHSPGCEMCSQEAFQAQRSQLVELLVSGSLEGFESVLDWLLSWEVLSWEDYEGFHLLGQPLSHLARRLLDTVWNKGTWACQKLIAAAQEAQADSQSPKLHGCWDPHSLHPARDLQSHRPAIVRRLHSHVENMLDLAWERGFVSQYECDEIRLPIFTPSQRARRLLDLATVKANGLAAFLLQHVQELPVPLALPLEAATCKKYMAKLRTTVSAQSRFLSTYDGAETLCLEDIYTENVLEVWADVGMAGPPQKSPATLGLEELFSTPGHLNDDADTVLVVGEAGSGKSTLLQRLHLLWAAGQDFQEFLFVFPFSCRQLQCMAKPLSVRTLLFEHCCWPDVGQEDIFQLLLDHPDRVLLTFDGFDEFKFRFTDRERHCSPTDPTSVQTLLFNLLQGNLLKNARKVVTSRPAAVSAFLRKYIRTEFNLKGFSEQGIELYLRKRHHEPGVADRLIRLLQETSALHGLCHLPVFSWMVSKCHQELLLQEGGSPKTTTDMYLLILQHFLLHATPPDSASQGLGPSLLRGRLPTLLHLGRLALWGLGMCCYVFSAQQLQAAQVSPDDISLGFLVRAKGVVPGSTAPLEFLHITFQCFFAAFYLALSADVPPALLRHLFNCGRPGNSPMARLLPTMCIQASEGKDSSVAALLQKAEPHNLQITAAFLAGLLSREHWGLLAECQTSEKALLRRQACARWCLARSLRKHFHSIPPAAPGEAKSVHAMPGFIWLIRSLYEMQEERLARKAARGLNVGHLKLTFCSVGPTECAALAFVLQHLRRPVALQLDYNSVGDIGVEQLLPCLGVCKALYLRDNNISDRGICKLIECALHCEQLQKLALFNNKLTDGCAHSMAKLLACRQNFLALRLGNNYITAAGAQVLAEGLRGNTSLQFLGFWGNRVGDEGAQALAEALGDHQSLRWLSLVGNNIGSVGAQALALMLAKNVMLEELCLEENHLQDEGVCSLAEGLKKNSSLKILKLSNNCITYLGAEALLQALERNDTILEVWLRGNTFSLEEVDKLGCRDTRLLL
ATP-dependent molecular chaperone HSP82, sequence (C4YTQ8 whole entry): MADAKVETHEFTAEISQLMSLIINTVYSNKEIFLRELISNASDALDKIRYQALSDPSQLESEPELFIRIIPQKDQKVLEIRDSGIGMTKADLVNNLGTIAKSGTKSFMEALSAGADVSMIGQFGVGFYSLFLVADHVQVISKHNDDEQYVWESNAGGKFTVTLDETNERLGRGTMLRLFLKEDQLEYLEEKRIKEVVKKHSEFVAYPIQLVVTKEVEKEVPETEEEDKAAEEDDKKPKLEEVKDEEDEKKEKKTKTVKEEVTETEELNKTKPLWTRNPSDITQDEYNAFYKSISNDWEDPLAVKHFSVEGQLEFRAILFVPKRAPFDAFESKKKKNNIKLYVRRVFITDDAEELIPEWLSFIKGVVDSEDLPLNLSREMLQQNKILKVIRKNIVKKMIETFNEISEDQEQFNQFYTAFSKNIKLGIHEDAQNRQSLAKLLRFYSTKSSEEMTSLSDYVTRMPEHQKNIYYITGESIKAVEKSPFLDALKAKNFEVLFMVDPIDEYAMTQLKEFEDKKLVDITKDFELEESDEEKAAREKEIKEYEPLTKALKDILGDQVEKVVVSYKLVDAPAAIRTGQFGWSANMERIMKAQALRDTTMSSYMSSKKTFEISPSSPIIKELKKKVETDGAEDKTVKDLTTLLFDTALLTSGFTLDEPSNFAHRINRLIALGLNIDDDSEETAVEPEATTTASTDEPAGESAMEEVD

CC1CCCCN1c1nnc(NC(=O)c2cc(-c3ccc(Br)cc3)on2)s1 (stereo unspecified)
IC50 [1]: 29 µM (active)

O=C(c1ccc(Cn2c(=S)[nH]c3ccccc3c2=O)cc1)N1CCN(c2ccccn2)CC1
AC50 [2]: 59.2 µM (active)
IC50 (HEK293 [3]): > 20 µM (inactive)
EC50 [4]: 0.549 µM (active)
EC50 [5]: > 150 µM (inactive)
IC50 (HEK293 [6]): 6.05 µM (active)
IC50 (HEK293 [7]): 12.6 µM (active)
IC50 (HEK293 [8]): 7.1 µM (active)
EC50 [9]: 12.4 µM (inconclusive)
IC50 [10]: 5.3 µM (active)
EC50 [11]: 5.49 µM (active)
AC50 [12]: 6.34 µM (active)
AC50 [13]: 31.4 µM (active)
IC50 (Tumor necrosis factor): 7.61 µM (active)
IC50 (HEK293 [14]): 13.9 µM (active)
EC50 [15]: > 180 µM (inactive)
EC50 (HEK293 [16]): 9 µM (active)

O=C(Nc1ccc(Oc2cccnc2)nc1)c1ccc(C(F)(F)F)cc1
IC50 (HEK293 [3]): > 20 µM (inactive)
IC50 [17]: > 80 µM (inactive)
IC50 [18]: 48.1 µM (not active)
EC50 [19]: > 53 µM (inactive)
IC50 (HEK293 [6]): 4.32 µM (active)
IC50 (HEK293 [7]): > 20 µM (inactive)
IC50 (HEK293 [8]): 8.57 µM (active)
IC50 [10]: 2.26 µM (active)
IC50 [20]: > 47.1 µM (inactive)
IC50 (Tumor necrosis factor): 2.79 µM (active)
EC50 (HEK293 [16]): 2.4 µM (active)

O=C(CSc1nccc(=O)[nH]1)Nc1ccc(F)c(Cl)c1
IC50 (Aspartyl aminopeptidase): > 73.5 µM (not active)
IC50 (Leucine aminopeptidase): 6.03 µM (active)
IC50 (Procathepsin L): > 59.6 µM (not active)
